Test results as given in ChEMBL document CHEMBL5042515, “Design and Evaluation of a Novel Peptide-Drug Conjugate Covalently Targeting SARS-CoV-2 Papain-like Protease” (J Med Chem, 2022).
Calls of active or inactive are those of the source. The rule behind the calls is not given here. *1 amine or outer side, *2 acyl side, *3 side chain or, on linkers, in order; H or OH if unused. Where a SMILES comes first, the peptide text is derived from it. Bridges are numbered along the chain shown (N, C = ends). [ ]: non-standard residue; d: D form. The star is where a group is joined. Met(S-mXyl) = C[S+](CC[C@H](N[*:1])C(=O)[*:2])Cc1cccc(C[*:3])c1; X1 = Cc1ccc(N*)cc1C(=O)NC(C)c1cccc2ccccc12

Test system: Severe acute respiratory syndrome coronavirus 2
Test: Covalent binding affinity to SARS-CoV-2 mutant PLpro Cys111S at 10 uM incubated for 2 hrs by SDS gel analysis

Cc1ccc(NC(=O)CC[C@H](N)C(=O)N[C@H]2CC[S+](C)Cc3cccc(c3)CSC[C@@H](C(=O)O)NC(=O)CNC(=O)[C@H](CCCNC(=N)N)NC(=O)[C@H](CC(C)C)NC2=O)cc1C(=O)NC(C)c1cccc2ccccc12 (stereo partly specified) (H-E(X1)[Met(S-mXyl)]LRGC-OH; thioether 2-6)
Activity: inactive
